Measurements: ChEMBL document CHEMBL1153018, “Synthesis of pochoxime prodrugs as potent HSP90 inhibitors” (Bioorg Med Chem Lett, 2009)
The source made the active and inactive calls. No cut-off for these calls is given here.

How the values were obtained:
Mus musculus [1] = test: Toxicity in ICR-SCID mouse heart assessed as cholesterol level at 150 mg/kg administered 3 times per week for 4 weeks measured after 24 hrs of last dose relative to untreated control; assay type: organism-based; set-up: dose 150 mg/kg; settings: in vivo
NSCLC = test: Growth inhibition of human NSCLC cells assessed as ATP level after 4 days; assay type: functional, cell-based
[2] = Half life in ICR-SCID mouse; assay type: ADME, organism-based; settings: in vivo
[3] = Drug level in tumor of human BT474 cells xenografted in ICR-SCID mouse at 100 mg/kg, ip administered after 3 weeks tumor implantation measured after 12 hrs; assay type: ADME, organism-based, Neoplasm, BT-474; set-up: dose 100 mg/kg, route intraperitoneal; settings: tumor (human BT474 xenograft), read-out: Drug uptake
[4] = Drug level in tumor of human BT474 cells xenografted in ICR-SCID mouse at 100 mg/kg, ip administered after 3 weeks tumor implantation measured after 24 hrs; assay type: ADME, organism-based, Neoplasm, BT-474; set-up: dose 100 mg/kg, route intraperitoneal; settings: tumor (human BT474 xenograft), read-out: Drug uptake
[5] = Drug level in tumor of human BT474 cells xenografted in ICR-SCID mouse at 150 mg/kg, ip administered after 3 weeks tumor implantation measured after 12 hrs; assay type: ADME, organism-based, Neoplasm, BT-474; set-up: dose 150 mg/kg, route intraperitoneal; settings: tumor (human BT474 xenograft), read-out: Drug uptake
[6] = Drug level in tumor of human BT474 cells xenografted in ICR-SCID mouse at 150 mg/kg, ip administered after 3 weeks tumor implantation measured after 24 hrs; assay type: ADME, organism-based, Neoplasm, BT-474; set-up: dose 150 mg/kg, route intraperitoneal; settings: tumor (human BT474 xenograft), read-out: Drug uptake
Mus musculus [7] = test: Hepatotoxicity in ICR-SCID mouse liver assessed as hematopoietic cell differentiation administered 3 times per week for 4 weeks measured after 24 hrs of last dose; assay type: toxicity, organism-based; settings: in vivo
[8] = Growth inhibition of human MDA231 cells assessed as ATP level after 4 days; assay type: functional; settings: MDA-MB-231, 96 h
MDA-MB-468 = test: Growth inhibition of human MDA-MB-468 cells assessed as ATP level after 4 days; assay type: functional; settings: MDA-MB-468, 96 h
NCI-N87 = test: Growth inhibition of human NCI-N87 cells assessed as ATP level after 4 days; assay type: functional; settings: NCI-N87, 96 h
K562 = test: Growth inhibition of human K562 cells assessed as ATP level after 4 days; assay type: functional; settings: K562, 96 h
MV4-11 = test: Growth inhibition of human MV4-11 cells assessed as ATP level after 4 days; assay type: functional; settings: MV4-11, 96 h
HCT-116 = test: Growth inhibition of human HCT116 cells assessed as ATP level after 4 days; assay type: functional; settings: HCT-116, 96 h
[9] = Growth inhibition of human tarceva and iressa-resistant HCC827 cells assessed as ATP level after 4 days; assay type: functional; settings: HCC827, 96 h
NCI-H1975 [10] = test: Growth inhibition of human tarceva and iressa-resistant NCI-H1975 cells assessed as ATP level after 4 days; assay type: functional; settings: NCI-H1975, 96 h
[11] = Growth inhibition of human A172 cells assessed as ATP level after 4 days; assay type: functional; settings: A 172, 96 h
[12] = Solubility in water; assay type: physicochemical; settings: buffer
HCC827 [13] = test: Induction of mutant EGFR degradation in human tarceva and iressa-resistant HCC827 cells at 20 to 500 nM by Western blotting; assay type: functional, cell-based
HCC827 [14] = test: Induction of mutant Met degradation in human tarceva and iressa-resistant HCC827 cells at 20 to 500 nM by Western blotting; assay type: functional, cell-based
HCC827 [15] = test: Induction of mutant c-Raf degradation in human tarceva and iressa-resistant HCC827 cells at 20 to 500 nM by Western blotting; assay type: functional, cell-based
HCC827 [16] = test: Induction of mutant Cdk4 degradation in human tarceva and iressa-resistant HCC827 cells at 20 to 500 nM by Western blotting; assay type: functional, cell-based
NCI-H1975 [17] = test: Induction of mutant EGFR degradation in human tarceva and iressa-resistant NCI-H1975 cells at 20 to 500 nM by Western blotting; assay type: functional, cell-based
NCI-H1975 [18] = test: Induction of mutant p-Akt degradation in human tarceva and iressa-resistant NCI-H1975 cells at 20 to 500 nM by Western blotting; assay type: functional, cell-based
NCI-H1975 [19] = test: Induction of mutant c-Raf degradation in human tarceva and iressa-resistant NCI-H1975 cells at 20 to 500 nM by Western blotting; assay type: functional, cell-based
NCI-H1975 [20] = test: Induction of mutant Cyclin D degradation in human tarceva and iressa-resistant NCI-H1975 cells at 20 to 500 nM by Western blotting; assay type: functional, cell-based
Homo sapiens = organism: Homo sapiens; test: Growth inhibition of human tarceva and iressa-resistant […] cells assessed as ATP level after 4 days; assay type: functional
[21] = Drug level in tumor of human BT474 cells xenografted in ICR-SCID mouse at 200 mg/kg, ip administered after 3 weeks tumor implantation measured after 6 hrs; assay type: ADME, organism-based, Neoplasm, BT-474; set-up: dose 200 mg/kg, route intraperitoneal; settings: tumor (human BT474 xenograft), read-out: Drug uptake
[22] = Drug level in tumor of human BT474 cells xenografted in ICR-SCID mouse at 200 mg/kg, ip administered after 3 weeks tumor implantation measured after 12 hrs; assay type: ADME, organism-based, Neoplasm, BT-474; set-up: dose 200 mg/kg, route intraperitoneal; settings: tumor (human BT474 xenograft), read-out: Drug uptake
[23] = Drug level in tumor of human BT474 cells xenografted in ICR-SCID mouse at 200 mg/kg, ip administered after 3 weeks tumor implantation measured after 48 hrs; assay type: ADME, organism-based, Neoplasm, BT-474; set-up: dose 200 mg/kg, route intraperitoneal; settings: tumor (human BT474 xenograft), read-out: Drug uptake
BT-474 [24] = test: Induction of p-HER2 degradation in human BT474 cells xenografted in ICR-SCID mouse at 100 mg/kg, ip administered after 3 weeks tumor implantation after 6 to 48 hrs by Western blotting; assay type: functional, organism-based; set-up: dose 100 mg/kg
BT-474 [25] = test: Induction of p-AKT degradation in human BT474 cells xenografted in ICR-SCID mouse at 100 mg/kg, ip administered after 3 weeks tumor implantation after 6 to 48 hrs by Western blotting; assay type: functional, organism-based; set-up: dose 100 mg/kg
BT-474 [26] = test: Induction of AKT degradation in human BT474 cells xenografted in ICR-SCID mouse at 100 mg/kg, ip administered after 3 weeks tumor implantation after 6 to 48 hrs by Western blotting; assay type: functional, organism-based; set-up: dose 100 mg/kg
BT-474 [27] = test: Induction of Cdk4 degradation in human BT474 cells xenografted in ICR-SCID mouse at 100 mg/kg, ip administered after 3 weeks tumor implantation after 6 to 48 hrs by Western blotting; assay type: functional, organism-based; set-up: dose 100 mg/kg
BT-474 [28] = test: Induction of HSP70 degradation in human BT474 cells xenografted in ICR-SCID mouse at 100 mg/kg, ip administered after 3 weeks tumor implantation after 6 to 48 hrs by Western blotting; assay type: functional, organism-based; set-up: dose 100 mg/kg
Mus musculus [29] = test: Hepatotoxicity in ICR-SCID mouse liver assessed as alanine aminotransferase level at 150 mg/kg administered 3 times per week for 4 weeks measured after 24 hrs of last dose relative to untreated control; assay type: toxicity, organism-based; set-up: dose 150 mg/kg; settings: in vivo
Mus musculus [30] = test: Hepatotoxicity in ICR-SCID mouse liver assessed as aspartate aminotransferase level at 100 mg/kg administered 3 times per week for 4 weeks measured after 24 hrs of last dose relative to untreated control; assay type: toxicity, organism-based; set-up: dose 100 mg/kg; settings: in vivo
Mus musculus [31] = test: Hepatotoxicity in ICR-SCID mouse liver assessed as alkaline phosphatase level at 100 mg/kg administered 3 times per week for 4 weeks measured after 24 hrs of last dose relative to untreated control; assay type: toxicity, organism-based; set-up: dose 100 mg/kg; settings: in vivo
Mus musculus [32] = test: Hepatotoxicity in ICR-SCID mouse liver assessed as alkaline phosphatase level at 150 mg/kg administered 3 times per week for 4 weeks measured after 24 hrs of last dose relative to untreated control; assay type: toxicity, organism-based; set-up: dose 150 mg/kg; settings: in vivo
Mus musculus [33] = test: Toxicity in ICR-SCID mouse kidney assessed as creatinine level at 100 mg/kg administered 3 times per week for 4 weeks measured after 24 hrs of last dose relative to untreated control; assay type: organism-based; set-up: dose 100 mg/kg; settings: in vivo
[34] = target: Heat shock protein HSP 90-alpha (Homo sapiens) (UniProt P07900)
Description: Binding affinity to human HSP90alpha

O=C1OCC/C=C/CC/C=C/C(=N/OCC(=O)N2CCCCC2)Cc2c(Cl)c(O)cc(O)c21 [POCHOXIME A]
Activity (Mus musculus [1]): 119 mg/dL
Activity (NSCLC): Active
half-life [2]: 2.5 h
concentration at 12 h [3]: 5250 ng/g
concentration at 24 h [4]: 4020 ng/g
concentration at 12 h [5]: 6500 ng/g
concentration at 24 h [6]: 7930 ng/g
Activity (Mus musculus [7]): Not Active
GI50 [8]: 7 nM
GI50 (MDA-MB-468): 9 nM
GI50 (NCI-N87): 4 nM
GI50 (K562): 6 nM
GI50 (MV4-11): 3 nM
GI50 (HCT-116): 9 nM
GI50 [9]: 31 nM
GI50 (NCI-H1975 [10]): 25 nM
GI50 [11]: 42 nM
solubility [12]: Insoluble
Activity (HCC827 [13]): Active
Activity (HCC827 [14]): Active
Activity (HCC827 [15]): Active
Activity (HCC827 [16]): Active
Activity (NCI-H1975 [17]): Active
Activity (NCI-H1975 [18]): Active
Activity (NCI-H1975 [19]): Active
Activity (NCI-H1975 [20]): Active
Activity (Homo sapiens): Active
concentration at 6 h [21]: 6520 ng/g
concentration at 12 h [22]: 8920 ng/g
concentration at 48 h [23]: 4020 ng/g
Activity (BT-474 [24]): Active
Activity (BT-474 [25]): Active
Activity (BT-474 [26]): Active
Activity (BT-474 [27]): Active
Activity (BT-474 [28]): Active
Activity (Mus musculus [29]): 12 U/L
Activity (Mus musculus [30]): 88.7 U/L
Activity (Mus musculus [31]): 51.3 U/L
Activity (Mus musculus [32]): 67.5 U/L
Activity (Mus musculus [33]): 0.2 mg/dL
GI50 [34]: 21 nM
